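Five compound concentrations were applied to cells in 96-well plates for 48 hours; endpoints were derived by simple linear interpolation of the resulting dose-response curve. Here, GI50 denotes the concentration required for 50% inhibition of growth.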 Active and inactive are the calls of the source. Rule as the data show it: active = GI50 up to about 1.1 µM and inactive = higher.
What was measured:
Experiment in all cases: NCI anticancer screen, dose series, 48 h
M14 = tested on: M14
U-251 = tested on: U-251
NCI-H522 = tested on: NCI-H522
SNB-19 = tested on: SNB-19
SR = tested on: SR
SF-295 = tested on: SF-295
SK-MEL-28 = tested on: SK-MEL-28
CAKI-1 = tested on: CAKI-1
HOP-62 = tested on: HOP-62
SK-MEL-2 = tested on: SK-MEL-2
UO-31 = tested on: UO-31
EKVX = tested on: EKVX
TK-10 = tested on: TK-10
COLO 205 = tested on: COLO 205
PC-3 = tested on: PC-3
SF-268 = tested on: SF-268
Malme-3M = tested on: Malme-3M
SNB-75 = tested on: SNB-75
MDA-MB-231 = tested on: MDA-MB-231

| Structure (SMILES) | GI50 (M14) | GI50 (U-251) | GI50 (NCI-H522) | GI50 (SNB-19) | GI50 (SR) | GI50 (SF-295) | GI50 (SK-MEL-28) | GI50 (CAKI-1) | GI50 (HOP-62) | GI50 (SK-MEL-2) | GI50 (UO-31) | GI50 (EKVX) | GI50 (TK-10) | GI50 (COLO 205) | GI50 (PC-3) | GI50 (SF-268) | GI50 (Malme-3M) | GI50 (SNB-75) | GI50 (MDA-MB-231) |
| --- | --- | --- | --- | --- | --- | --- | --- | --- | --- | --- | --- | --- | --- | --- | --- | --- | --- | --- | --- |
| Cc1cccc2oc3c(c(=O)c12)CC(O)C(C)(C)O3 (stereo not given) | > 100 µM (inactive) | > 100 µM (inactive) | 35.9 µM (inactive) | > 100 µM (inactive) | 56.1 µM (inactive) | > 100 µM (inactive) | > 100 µM (inactive) | > 100 µM (inactive) | > 100 µM (inactive) | > 100 µM (inactive) | > 100 µM (inactive) | > 100 µM (inactive) | > 100 µM (inactive) | > 100 µM (inactive) | > 100 µM (inactive) | > 100 µM (inactive) | > 100 µM (inactive) |  |  |
| COc1cc(NCc2ccc3nc(OC)c(OC)nc3c2)cc(OC)c1OC | > 100 µM (inactive) | > 100 µM (inactive) | 86.5 µM (inactive) | > 100 µM (inactive) | 89.9 µM (inactive) | 80.5 µM (inactive) | > 100 µM (inactive) | > 100 µM (inactive) | > 100 µM (inactive) | > 100 µM (inactive) | > 100 µM (inactive) | 77.4 µM (inactive) |  | > 100 µM (inactive) | 89.1 µM (inactive) | > 100 µM (inactive) | > 100 µM (inactive) | 54.8 µM (inactive) | > 100 µM (inactive) |
| Cc1cc(CC(O)(C(F)(F)F)C(F)(F)F)cc(CC(O)(C(F)(F)F)C(F)(F)F)n1 | 3.71 µM (inactive) | 3.3 µM (inactive) | 2.36 µM (inactive) | > 100 µM (inactive) | 4.08 µM (inactive) | 3.06 µM (inactive) | 3.03 µM (inactive) | > 100 µM (inactive) | 3.33 µM (inactive) | 2.44 µM (inactive) | 2.05 µM (inactive) | 2.89 µM (inactive) | 4.7 µM (inactive) | 1.87 µM (inactive) | 2.9 µM (inactive) | 2.7 µM (inactive) | 1.56 µM (inactive) | 2.31 µM (inactive) | 3.23 µM (inactive) |
| COc1ccc(/C(Br)=C2\OC(=O)c3ccccc32)cc1 | > 10 µM (inactive) | > 10 µM (inactive) | > 10 µM (inactive) | > 10 µM (inactive) | > 10 µM (inactive) | > 10 µM (inactive) | > 10 µM (inactive) | > 10 µM (inactive) | > 10 µM (inactive) | > 10 µM (inactive) | > 10 µM (inactive) | > 10 µM (inactive) | > 10 µM (inactive) | > 10 µM (inactive) | > 10 µM (inactive) | > 10 µM (inactive) |  | > 10 µM (inactive) | > 10 µM (inactive) |
| COC(=O)c1cc(C)ccc1C1CN=NC12Cc1cccc(C)c1C2=O (stereo not given) | 16.7 µM (inactive) | 48.9 µM (inactive) | 21.3 µM (inactive) | 55.1 µM (inactive) | 26.2 µM (inactive) | 36.1 µM (inactive) | 27.3 µM (inactive) | 43.3 µM (inactive) | 35.6 µM (inactive) |  | 38.9 µM (inactive) | 23 µM (inactive) | 71.6 µM (inactive) |  |  | 49.7 µM (inactive) | 24.2 µM (inactive) | 77.3 µM (inactive) | 25.6 µM (inactive) |
| CC(=O)n1c2ccccc2c2nc3nc(Oc4ccc(C)cc4)c4ccccc4c3cc21 | > 100 µM (inactive) | 41.6 µM (inactive) | > 100 µM (inactive) | 92 µM (inactive) | > 100 µM (inactive) | 66.2 µM (inactive) | > 100 µM (inactive) | > 100 µM (inactive) | 57 µM (inactive) | > 100 µM (inactive) | > 100 µM (inactive) | > 100 µM (inactive) |  | > 100 µM (inactive) |  | 92.3 µM (inactive) | > 100 µM (inactive) | 44.2 µM (inactive) |  |
| COC(=O)/C(=N\NC(C)(C)C)C(C(=O)OC)C(=O)C(=O)Nc1cc(Cl)ccc1Cl (stereo not given) | > 100 µM (inactive) | > 100 µM (inactive) | > 100 µM (inactive) | > 100 µM (inactive) | > 100 µM (inactive) | > 100 µM (inactive) | > 100 µM (inactive) | > 100 µM (inactive) | > 100 µM (inactive) | > 100 µM (inactive) | > 100 µM (inactive) | > 100 µM (inactive) | > 100 µM (inactive) | > 100 µM (inactive) |  | > 100 µM (inactive) | > 100 µM (inactive) | > 100 µM (inactive) |  |
| CC(=O)c1ccc2c(c1)C(=O)c1sc(C(C)=O)cc1C2=O | 0.91 µM (active) | 1.56 µM (inactive) | 0.652 µM (active) | 0.748 µM (active) | 0.419 µM (active) | 1.01 µM (active) | 2.25 µM (inactive) | 1.75 µM (inactive) | 1.73 µM (inactive) | 1.47 µM (inactive) | 1.07 µM (active) | 1.18 µM (inactive) | 1.76 µM (inactive) | 1.69 µM (inactive) | 1.82 µM (inactive) | 1.17 µM (inactive) | 0.526 µM (active) | 1.67 µM (inactive) | 1.23 µM (inactive) |

Source: ChEMBL document CHEMBL1201862, “PubChem BioAssay data set” (2004)
